One block for each compound: values may come before it.
What was measured:
[1] = system: human peripheral blood leukocytes (HPBLs); assay: HPBL plaque forming cell (PFC) assay / IgG production in vitro (differentiation); format: cell-based; settings: for Inhibitory Concentration (inhibiting nonspecific IgG production below normal production) / Stimulation of IgG Production, Concentration / Stimulation of IgG Production, Percent: HPBL; for Stimulation of IgG Production, Percent: at the stimulating concentration
Excerpt: (§1) C. […] This model is used to correlate the effects of biomodulators on the expression of immune response in vitro. The plaque assay disclosed in this reference is used for the determination of the effect of biomodulators on the specificity, class and subclass of individual clones.
(§2) A. Purification of PWM and separation of the differentiative and proliferative functions Pokeweed Mitogen (PWM) and three of its isomitogens, Pa-1 and Pa-5, which are primarily differentiative in nature, and Pa-2 which is primarily proliferative, were prepared according to the method of Waxdal, supra, except that the iso-mitogens were finally purified by isoelectric focusing.
Human peripheral blood leukocytes were cultured in a standard tissue culture medium. Aliquots of these cultured cells (1,000,000 cells/ml medium) were cultured for 6 hours, and the specified amount of Formula II compound was added; the cells were then cultured for an additional 90 hours. Sheep red blood cells (SRBC) conditioned with class-specific (IpG) goat anti-human antiserum (1:400) for 2 hours; then guinea pig complement (2%) for 2 hours were conjugated to Protein A as described in detail in Radioimmunoimaging and Radioimmunotherapy, Eds.

[2] = system: human peripheral blood leukocytes (HPBLs); assay: HPBL 3H-thymidine incorporation (proliferation); format: cell-based; set-up: reference not given here
Excerpt: as §1, §2

[3] = system: canine glioma (CG) specific IgG antibody; assay: CG-specific antibody (IgG) titer in a dog; format: in vivo
CG tumor = assay: chromium-release cell-mediated lympholysis vs. CG tumor in a dog; format: in vivo
Excerpt: Cellular immune response reflected the results reported in III, 1 above. […] This also is in the absence of CG antigen exposure. […] Thus, both cellular and humoral immunity appear to be modulatable in the absence of antigen by the compounds of the instant invention.

canine glioma cells = assay: in vivo inhibition of canine glioma in nude rats, compound IIc'
Description: Fifty four nude rats (Harlan) were injected in the right flank with 5×10^6 canine glioma cells. Animals at the time of injection were between 52 and 63 days old and weighed approximately 200 g. The rats were divided into 7 groups, each group having a total number of 7 rats except for the control group, which totalled 12 animals. Compound IIc' was administered to the experimental animals at one of the following doses for each experimental group: 100 μg/kg, 10 μg/kg, 1 μg/kg, 0.1 μg/kg, 0.01 μg/kg and 0.001 μg/kg (phosphate buffer saline, M, W, F, I.P.). The control animals were injected with PBS (phosphate buffered saline) only. The volume of each injection was 100 μl. The injections of drug were simultaneously begun with injection of tumor cells. The animals were injected with the appropriate dosage of drug ([…]) by I.P. injection and tumor length, width and depth were measured using caliphers each Monday, Wednesday and Friday (M, W, F) morning for approximately 9 weeks. Each point on the graphs represents the total of all rats for each group. […] The data were normalized for the greater number of control animals by multiplying the total tumor volume for the control animals by 7/12.

canine glioma tumors = assay: canine glioma tumor growth in nude rats, various biomodulators; format: in vivo; settings: in words
Description: C57 BL/6 mice were injected I.M. with B-16 melanoma cells, maintained in culture in the right flank or shoulder. Tumor growth was monitored on a daily basis by physical measurement and by MRI/MRS on a weekly basis. Treatment routes were via intraperitoneal injection using various CAD between 1 μg and 0.001 μg per animal on a M, W, F injection schedule. The animals were terminated by CO2 when the tumors had become 1.0 cm in diameter. Lung metastases were counted.
Various biomodulators were tested in vivo for their effects on canine glioma tumors established and monitored as above for mice, but in nude rats. […] FIGS. 29-30 show the progression of the tumors over time with treatment with, respectively, PWM, Sw, CAD, HHD-2, HHD-3, HHD-4, and HHD-7.

P-815 mastocytoma cells = assay: P-815 cytotoxic T lympholysis / cell mediated lympholysis (CML), spleen cells treated in culture; format: cell-based, mouse; settings: hydrocortisone 2 mg given day -2; hydroxyurea 10^-5M; in words
Description: In this case the P-815 is injected into the H-2 incompatible host and in the Brunner and Cerotini model an antigen specific lympholysis event occurs with an optimum on day 11 at an effector/target ratio of 100:1 with 30% lysis If the spleens of the injected animals are removed on day three there is no observable cytotoxicity; however, if the spleen cells are treated with biomodulator (in this case PWM at 100 ng) there is an enormous increase in the cytotoxicity event. […] The slope represents a measure of the efficiency of kill and in the biomodulator treated cells is approximately 1.6 versus 0.24 for the control antigen driven response on day 11. This represents a seven fold increase in simple cytotoxicity efficiency. Again this is concentration dependent and the kinetics of the response are such that if the cells are left in culture for times which approximate the in vivo 11 day optimum then the lysis values approach the untreated controls. […]
P 815 mastocytoma cells are grown in culture or as an ascites (DBA H-2/d) and injected into C57BL/6J mice (H-2/b). […] The specificity of the response is assessed by testing the cytotoxicity against EL-4 cells ([…]) which are NK insensitive and histoincompatible with the original target. […]
Seven effector/target ratios are tested and the percent lysis calculated. […]

HMGCoA reductase = target: T1, HMGCoA reductase (Rattus norvegicus, UniProt P51639); assay: inhibition of rat liver HMGCoA reductase activity; format: biochemical; set-up: from tissue; host or cells: rat liver; settings: rat liver
T1 sequence (P51639 1-887): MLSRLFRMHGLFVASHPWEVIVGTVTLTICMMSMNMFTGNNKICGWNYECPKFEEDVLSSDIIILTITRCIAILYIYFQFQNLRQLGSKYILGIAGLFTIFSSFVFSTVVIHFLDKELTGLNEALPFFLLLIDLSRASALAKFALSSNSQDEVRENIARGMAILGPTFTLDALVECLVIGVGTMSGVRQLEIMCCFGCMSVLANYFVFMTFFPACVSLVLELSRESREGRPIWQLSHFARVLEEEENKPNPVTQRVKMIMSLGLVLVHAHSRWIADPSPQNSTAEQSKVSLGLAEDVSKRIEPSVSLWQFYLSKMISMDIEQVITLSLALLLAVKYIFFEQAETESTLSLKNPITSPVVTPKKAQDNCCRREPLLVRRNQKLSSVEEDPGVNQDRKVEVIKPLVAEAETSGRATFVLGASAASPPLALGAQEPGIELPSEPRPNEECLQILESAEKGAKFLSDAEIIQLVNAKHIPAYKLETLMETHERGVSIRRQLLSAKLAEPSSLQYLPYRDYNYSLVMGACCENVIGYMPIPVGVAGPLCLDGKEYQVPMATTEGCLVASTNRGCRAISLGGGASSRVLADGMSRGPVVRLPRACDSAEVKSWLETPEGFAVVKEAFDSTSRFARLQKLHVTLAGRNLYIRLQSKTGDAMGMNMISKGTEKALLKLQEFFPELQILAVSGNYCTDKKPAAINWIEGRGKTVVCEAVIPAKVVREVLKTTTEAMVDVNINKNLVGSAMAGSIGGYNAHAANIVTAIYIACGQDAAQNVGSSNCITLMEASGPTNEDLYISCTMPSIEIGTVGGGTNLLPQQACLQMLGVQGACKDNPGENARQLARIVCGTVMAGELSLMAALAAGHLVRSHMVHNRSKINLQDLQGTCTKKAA
Excerpt: reductase activity; data obtained according to Example IA.

canine glioma = assay: in vivo inhibition of canine glioma in dog brain (NMR)
Description: Canine glioma was implanted surgically into the brains of four outbred dogs (2×10^6 cells). This procedure normally causes death by tumor growth in 14-28 days.
Simultaneous with implantation, the dogs were each placed on a regimen of compounds according to the invention, Compounds IIa', IIe' and TF004 in various dosages were administered on alternate days (M, W, F) by I.P. injection in phosphate buffered saline.
Tumor progress was assessed at weekly intervals by NMR, employing GdDTPA as imaging agent. This method illuminates vascularization at the surface of the tumor, and provides images which correlate well with neuropathological observations.

[4] = 1 ng/kg I.P., treatment begun on day of implantation

Structure (SMILES): CC(C)OC(=O)C[C@H](O)C[C@@H](O)/C=C/c1c(C(C)C)nc(-c2ccccc2)n1-c1ccc(F)cc1 [Compound IIc']
Inhibitory Concentration (inhibiting nonspecific IgG production below normal production) [1]: none found | Stimulation of IgG Production, Concentration [1]: 100 pM | optimal dose in vitro, immune stimulation ([1]; HPBL assay): 100 pM | Stimulation of IgG Production, Percent [1]: 6200% | Proliferation ((3H) thymidine incorporation into DNA) [2]: 1.2 | antibody titer versus control without antigen ([3]; in words): titers of antibody increased over the control antibody titer significantly | IC-50% Titer (Anti-CG) ([3]; treated 2+ months, tumor regressed): Baseline Values | slope M of Y = MX + B (linear regression of toxicity) (CG tumor; December 14, 1987): 0.05 | slope M of Y = MX + B (linear regression of toxicity) (CG tumor; February 9, 1988): 0.35 | slope M of Y = MX + B (linear regression of toxicity) (CG tumor; February 17, 1988): 0.75 | slope M of Y = MX + B (linear regression of toxicity) (CG tumor; March 31, 1988): 0.05 | CML (CG tumor; additional 2 months of administration, no CG antigen, in words): significant increase in CML | CG-specific CML (CG tumor; after 14 days, I.P., M, W, F, in words): only baseline levels of CG-specific CML were present | optimal dose in vivo, equivalent concentration with uniform distribution (canine glioma cells; 100 ng/kg): 250 pM | cytostatic activity at other doses (canine glioma cells; 10 and 100 μg/kg, 1 ng/kg, in words): Little or no cytostatic activity | most effective dosage for inhibition of canine glioma (canine glioma cells; I.P., M, W, F): 100 ng/kg

Structure (SMILES): CC(C)OC(=O)C[C@H](O)C[C@H](O)/C=C/c1c(C(C)C)nc(-c2ccccc2)n1-c1ccc(F)cc1 [HHD-3]
canine glioma tumor regression in nude rats (canine glioma tumors): showed no regression effect, just delay of the control growth pattern

Structure (SMILES): CC(C)OC(=O)C[C@H](O)C[C@@H](O)/C=C/c1c(C(C)C)nc(-c2ccccc2)n1-c1ccc(F)cc1 [HHD-7]
canine glioma tumor regression in nude rats (canine glioma tumors): showed the best regression

Structure (SMILES): C[C@]12CCC(=O)C=C1CC[C@@H]1[C@@H]2[C@@H](O)C[C@@]2(C)[C@H]1CC[C@]2(O)C(=O)CO [Hydrocortisone]
influence on the biomodulator effect on CML (P-815 mastocytoma cells): reduced the biomodulator effect

Structure (SMILES): NC(=O)NO [Hydroxyurea]
influence on the biomodulator effect on CML (P-815 mastocytoma cells): does not inhibit the biomodulator effect on CML

IC50 (HMGCoA reductase): 3150 nM
Structure (SMILES): CC(C)OC(=O)C[C@@H](O)C[C@@H](O)/C=C/c1c(C(C)C)nc(-c2ccccc2)n1-c1ccc(F)cc1 [IIa]
Inhibitory Concentration (inhibiting nonspecific IgG production below normal production) [1]: none found | Stimulation of IgG Production, Concentration [1]: 200 pM | Stimulation of IgG Production, Percent [1]: 1700% | Proliferation ((3H) thymidine incorporation into DNA) [2]: 0.98

IC50 (HMGCoA reductase): 1350 nM
Structure (SMILES): CC(C)OC(=O)C[C@@H](O)C[C@H](O)/C=C/c1c(C(C)C)nc(-c2ccccc2)n1-c1ccc(F)cc1 [IIb]
Inhibitory Concentration (inhibiting nonspecific IgG production below normal production) [1]: none found | Stimulation of IgG Production, Concentration [1]: 200 pM | Stimulation of IgG Production, Percent [1]: 1700% | Proliferation ((3H) thymidine incorporation into DNA) [2]: 1.0

IC50 (HMGCoA reductase): 2 nM
Structure (SMILES): CC(C)OC(=O)C[C@H](O)C[C@H](O)/C=C/c1c(C(C)C)nc(-c2ccccc2)n1-c1ccc(F)cc1 [IId, reference compound]
Stimulation of IgG Production, Concentration [1]: 100000 pM | Stimulation of IgG Production, Percent [1]: 320% | Proliferation ((3H) thymidine incorporation into DNA) [2]: 0.66

Structure (SMILES): CC(C)c1nc(-c2ccccc2)n(-c2ccc(F)cc2)c1/C=C/[C@H](O)C[C@H](O)CC(=O)O [TF-002]
day by which tumor regressed (canine glioma; pre-treated, 10 ng/kg I.P. M, W, F): ≤ 19 days | later tumor status (canine glioma; pre-treated, 10 ng/kg, in words): free of tumor

Structure (SMILES): CC(C)c1c(/C=C/C(O)CC(O)CC(=O)O)n(-c2ccc(F)cc2)c2ccccc12 (stereo not shown) [TF-004]
day of complete regression (canine glioma; [4]): ≤ 21 days | day of substantial regression (canine glioma; [4]): ≤ 15 days | day of complete regression (canine glioma; treatment begun on Day 11): ≤ 30 days | day of substantial regression (canine glioma; treatment begun on Day 11): ≤ 21 days

Reference: patent publication US5919464A, “Treatment of aberrant cellular states with biomodulators” (University of New Mexico, priority 1993, dated 1999)
